# Assay results taken from patent US9303027B2 (dated 2016).
# Counter-ions that a name gives are not always drawn.
row,SMILES,melting point [°C]
1,COc1cccc([C@@H](CN2CCCC2)NC(=O)C2(c3ccc4oc(=O)[nH]c4c3)CC2)c1,92 to 94
2,O=C(N[C@H](CN1CC[C@H](O)C1)c1ccccc1)C1(c2ccc3oc(=O)[nH]c3c2)CC1,142 to 144
3,Cl.O=C(O)Cn1c(=O)oc2ccc(C3(C(=O)N[C@H](CN4CCCC4)c4ccccc4)CC3)cc21,166 to 168
4,O=C(O)c1ccc(C2(C(=O)N[C@H](CN3CCCC3)c3ccccc3)CC2)cc1,134 to 136
5,NC(=O)c1cccc([C@@H](CN2CCCC2)NC(=O)C2(c3ccc4oc(=O)[nH]c4c3)CC2)c1,139 to 141
6,CS(=O)(=O)Nc1cccc(C2(C(=O)N[C@H](CN3CCCC3)c3cccc(OCC(=O)O)c3)CC2)c1,160 to 162
7,O=C(N[C@H](CN1CCCC1)c1cccc(OCc2ccccc2)c1)C1(c2ccc3oc(=O)[nH]c3c2)CC1,94 to 96
8,O=C(N[C@H](CN1CCCC1)c1cccc(O)c1)C1(c2ccc3oc(=O)[nH]c3c2)CC1,132 to 134
9,O=C(N[C@H](CN1CCCC1)c1cccc(-c2nn[nH]n2)c1)C1(c2ccc3oc(=O)[nH]c3c2)CC1,107 to 109
10,COc1cccc([C@@H](CN2CC[C@H](O)C2)NC(=O)C2(c3ccc4oc(=O)[nH]c4c3)CC2)c1,125 to 127
11,COC(=O)c1ccc(Cn2c(=O)oc3ccc(C4(C(=O)N[C@H](CN5CCCC5)c5cccc(O)c5)CC4)cc32)cc1,119 to 120
12,COC(=O)c1cccc(Cn2c(=O)oc3ccc(C4(C(=O)N[C@H](CN5CCCC5)c5cccc(O)c5)CC4)cc32)c1,112 to 113
13,O=C(N[C@H](CN1CC[C@H](O)C1)c1cccc([N+](=O)[O-])c1)C1(c2ccc3oc(=O)[nH]c3c2)CC1,224 to 226
14,O=C1Cc2ccc(C3(C(=O)N[C@H](CN4CCCC4)c4ccccc4)CC3)cc2N1,115 to 118
15,CN(C(=O)C1(c2ccccc2)CCC1)[C@H](CN1CCCC1)c1ccccc1.Cl,234 to 235
16,O=C(N[C@H](CN1CCCC1)c1ccccc1)C1(c2nc3ccccc3s2)CC1,97 to 99
17,CS(=O)(=O)Nc1ccc(C2(C(=O)N[C@H](CN3CCCC3)c3ccccc3)CC2)cc1,165 to 168
18,CS(=O)(=O)Nc1cccc(C2(C(=O)N[C@H](CN3CCCC3)c3ccccc3)CC2)c1,146 to 148
19,CN(C(=O)C1(c2ccccc2)CCCC1)[C@H](CN1CCCC1)c1ccccc1.Cl,220 to 221
20,Cl.O=C(N[C@H](CN1CCCC1)c1ccccc1)C1(c2cccc(O)c2)CC1,80 to 82
21,Cl.O=C(N[C@H](CN1CCCC1)c1ccccc1)C1(c2cccc(OCc3ccccc3)c2)CC1,118 to 120
22,CS(=O)(=O)Oc1ccc(C2(C(=O)N[C@H](CN3CC[C@H](O)C3)c3ccccc3)CC2)cc1.Cl,60 to 62
23,CN(C(=O)C1(c2ccccc2)CCCCC1)[C@H](CN1CCCC1)c1ccccc1.Cl,232 to 233
24,CN(C(=O)C1(c2ccccc2)CC1)[C@H](CN1CCCC1)c1ccccc1.Cl,216 to 217
25,O=C(N[C@H](CN1CC[C@H](O)C1)c1ccccc1)C1(c2ccncc2)CC1,112 to 114

row,SMILES,melting point [°C]
1,CS(=O)(=O)c1ccc(C2(C(=O)N[C@H](CN3CCCC3)c3ccccc3)CC2)cc1,150 to 152
2,CN(C(=O)C1(c2cnc3ccccc3c2)CC1)[C@H](CN1CCCC1)c1ccccc1.Cl,223 to 225
3,CN(C)S(=O)(=O)c1ccccc1C1(C(=O)N[C@H](CN2CCCC2)c2ccccc2)CC1,80 to 81
4,CS(=O)(=O)c1cccc(C2(C(=O)N[C@H](CN3CCCC3)c3ccccc3)CC2)c1.Cl,68 to 70
5,O=C(N[C@H](CN1CCCC1)c1ccccc1)C1(c2ccc3[nH]c(=O)ccc3c2)CC1,171 to 172
6,CS(=O)(=O)Nc1cc(C2(C(=O)N[C@H](CN3CCCC3)c3ccccc3)CC2)ccc1Cl,280 to 281
7,CC(C)(C)OC(=O)N[C@H]1CCN(C[C@@H](NC(=O)C2(c3cccc(NS(C)(=O)=O)c3)CC2)c2ccccc2)C1,66.3 to 66.5
8,CN[C@H]1CCN(C[C@@H](NC(=O)C2(c3cccc(NS(C)(=O)=O)c3)CC2)c2ccccc2)C1,80.6 to 80.8
9,Cl.O=C(N[C@H](CN1CCCC1)c1ccccc1)C1(c2ccccc2)CCCCC1,204 to 205
10,O=C(N[C@H](CN1CCCC1)c1ccccc1)C1(c2ccc3c(c2)NS(=O)(=O)O3)CC1,239 to 241
11,CS(=O)(=O)Nc1cccc(C2(C(=O)N[C@H](CN3CCCC3)C3CCCCC3)CC2)c1,201 to 202
12,Cl.O=C(N[C@H](CN1CCCC1)c1ccccc1)C1(c2cccnc2)CC1,150 to 152
13,CS(=O)(=O)Nc1cccc(C2(C(=O)N[C@@H](CN3CCCC3)c3cccc(OCc4ccccc4)c3)CC2)c1,70 to 72
14,CS(=O)(=O)Nc1cccc(C2(C(=O)N[C@@H](CN3CCCC3)c3cccc(O)c3)CC2)c1,103 to 105
15,Cl.O=C(N[C@H](CN1CCCC1)c1ccccc1)C1(c2cnc3ccccc3c2)CC1,176 to 178
16,O=C(N[C@H](CN1CCCC1)c1ccccc1)C1(c2ccc3c(c2)NS(=O)(=O)C3)CC1,138 to 140
17,Cl.O=C(N[C@H](CN1CCCC1)c1ccccc1)C1(c2ccccn2)CC1,107.1 to 107.3
18,O=C(N[C@H](CN1CCCC1)c1ccccc1)C1(c2ccc3c(c2)NS(=O)(=O)C=C3)CC1,148 to 150
19,CS(=O)(=O)Nc1ccc(C2(C(=O)N[C@H](CN3CCCC3)c3ccccc3)CC2)cn1,182.2 to 182.4
20,O=C(N[C@H](CN1CCCC1)c1ccccc1)C1(c2ccc3c(c2)C=CS(=O)(=O)N3)CC1,163 to 165
21,O=C(N[C@H](CN1CCCC1)c1ccccc1)C1(c2ccc3oncc3c2)CC1,129 to 130
22,CS(=O)(=O)Oc1cccc([C@@H](CN2CCCC2)NC(=O)C2(c3ccc4oc(=O)[nH]c4c3)CC2)c1 (as salt: trifluoroacetate),101 to 103
23,CS(=O)(=O)Nc1cccc(C2(C(=O)N[C@H](CN3CC[C@H](N)C3)c3ccccc3)CC2)c1 (as salt: trifluoroacetate),119.6 to 119.8
24,Cn1c(=O)oc2ccc(C3(C(=O)N[C@H](CN4CCCC4)c4ccccc4)CC3)cc21 (stereo in doubt),96 to 98
25,N#Cc1cccc([C@@H](CN2CCCC2)NC(=O)C2(c3ccc4oc(=O)[nH]c4c3)CC2)c1 (stereo in doubt),106 to 108

row,SMILES,melting point [°C]
1,Nc1cccc([C@@H](CN2CCCC2)NC(=O)C2(c3ccc4oc(=O)[nH]c4c3)CC2)c1 (stereo in doubt),95 to 97
2,N#Cc1cccc(COc2cccc([C@@H](CN3CCCC3)NC(=O)C3(c4ccc5oc(=O)[nH]c5c4)CC3)c2)c1 (stereo in doubt),129 to 130
3,N#Cc1ccc(COc2cccc([C@@H](CN3CCCC3)NC(=O)C3(c4ccc5oc(=O)[nH]c5c4)CC3)c2)cc1 (stereo in doubt),88 to 89
4,CS(=O)(=O)Nc1cccc([C@@H](CN2CCCC2)NC(=O)C2(c3ccc4oc(=O)[nH]c4c3)CC2)c1 (stereo in doubt),114 to 116
5,CC(=O)c1cc(C2(C(=O)N[C@H](CN3CCCC3)c3ccccc3)CC2)ccc1O (stereo in doubt),101.8 to 102.2
6,O=C(N[C@H](CN1CCCC1)c1ccccc1)C1(c2ccc3oc(=O)[nH]c3c2)CC1 (stereo in doubt),142 to 144
7,COc1ccc(C2(C(=O)N[C@H](CN3CCCC3)c3ccccc3)CC2)cc1NS(C)(=O)=O (stereo in doubt),103 to 105
8,Cc1noc2ccc(C3(C(=O)N[C@H](CN4CCCC4)c4ccccc4)CC3)cc12 (stereo in doubt),158.5 to 158.8
9,Cc1cc(C2(C(=O)N[C@H](CN3CCCC3)c3ccccc3)CC2)ccc1NS(C)(=O)=O (stereo in doubt),92 to 94
10,Cc1ccc(C2(C(=O)N[C@H](CN3CCCC3)c3ccccc3)CC2)cc1NS(C)(=O)=O (stereo in doubt),92 to 94
11,O=CNc1cc(C2(C(=O)N[C@H](CN3CCCC3)c3ccccc3)CC2)ccc1O (stereo in doubt),175 to 177
12,CS(=O)(=O)Nc1cc(C2(C(=O)N[C@H](CN3CCCC3)c3ccccc3)CC2)ccc1F (stereo in doubt),67 to 69
13,NC(=O)c1cccc(C2(C(=O)N[C@H](CN3CCCC3)c3ccccc3)CC2)c1 (stereo in doubt),120 to 121
14,CS(=O)(=O)Nc1cc(C2(C(=O)N[C@H](CN3CCCC3)c3ccccc3)CC2)c(F)cc1F (stereo in doubt),81.2 to 81.4
15,C/C(=N/O)c1cc(C2(C(=O)N[C@H](CN3CCCC3)c3ccccc3)CC2)ccc1O (stereo in doubt),158.5 to 158.8
16,O=C(N[C@H](CN1CCCC1)c1ccccc1)C1(c2ccc3[nH]c(=O)[nH]c3c2)CC1 (stereo in doubt),207 to 209
17,Cn1nnc2cc(C3(C(=O)N[C@H](CN4CCCC4)c4ccccc4)CC3)ccc21 (stereo in doubt),78 to 80
18,O=C(N[C@H](CN1CCCC1)c1ccccc1)C1(c2ccc3ccc(=O)[nH]c3c2)CC1 (stereo in doubt),101 to 103
19,O=C(O)COc1cccc(C2(C(=O)N[C@H](CN3CCCC3)c3ccccc3)CC2)c1 (stereo in doubt),124 to 125
20,NC(=O)c1ccc(C2(C(=O)N[C@H](CN3CCCC3)c3ccccc3)CC2)cc1 (stereo in doubt),201
21,O=C(N[C@H](CN1CCCC1)c1ccccc1)C1(c2ccc3[nH]cnc3c2)CC1 (stereo in doubt),127 to 129
22,CS(=O)(=O)Nc1cc(C2(C(=O)N[C@H](CN3CCCC3)c3ccccc3)CC2)ccc1F.Cl (stereo in doubt),130
23,O=C(O)COc1ccc(C2(C(=O)N[C@H](CN3CCCC3)c3ccccc3)CC2)cc1 (stereo in doubt),94 to 95
24,O=C(N[C@H](CN1CCCC1)c1ccccc1)C1(c2ccc3[nH]ncc3c2)CC1 (stereo in doubt),82 to 83
